According to patent publication US11104661B1, “Inhibiting human integrin (α-4) (β-7)” (Morphic Therapeutic, Inc., priority 2019, dated 2021):

The compounds below were run against T1, α4β7 (Homo sapiens, UniProt P13612+P26010) (assay: Cell adhesion assay, RPMI8866 cells on MAdCAM coated plates (Example 7)). Conditions: RPMI8866 cells adhering to recombinant human MAdCAM; Table 4 comparative compounds; read-out: CA Assay (Example 7).
T1 construct: endogenous in cells; host or cells: RPMI 8866 cells
T1 sequence (P13612 34-1032): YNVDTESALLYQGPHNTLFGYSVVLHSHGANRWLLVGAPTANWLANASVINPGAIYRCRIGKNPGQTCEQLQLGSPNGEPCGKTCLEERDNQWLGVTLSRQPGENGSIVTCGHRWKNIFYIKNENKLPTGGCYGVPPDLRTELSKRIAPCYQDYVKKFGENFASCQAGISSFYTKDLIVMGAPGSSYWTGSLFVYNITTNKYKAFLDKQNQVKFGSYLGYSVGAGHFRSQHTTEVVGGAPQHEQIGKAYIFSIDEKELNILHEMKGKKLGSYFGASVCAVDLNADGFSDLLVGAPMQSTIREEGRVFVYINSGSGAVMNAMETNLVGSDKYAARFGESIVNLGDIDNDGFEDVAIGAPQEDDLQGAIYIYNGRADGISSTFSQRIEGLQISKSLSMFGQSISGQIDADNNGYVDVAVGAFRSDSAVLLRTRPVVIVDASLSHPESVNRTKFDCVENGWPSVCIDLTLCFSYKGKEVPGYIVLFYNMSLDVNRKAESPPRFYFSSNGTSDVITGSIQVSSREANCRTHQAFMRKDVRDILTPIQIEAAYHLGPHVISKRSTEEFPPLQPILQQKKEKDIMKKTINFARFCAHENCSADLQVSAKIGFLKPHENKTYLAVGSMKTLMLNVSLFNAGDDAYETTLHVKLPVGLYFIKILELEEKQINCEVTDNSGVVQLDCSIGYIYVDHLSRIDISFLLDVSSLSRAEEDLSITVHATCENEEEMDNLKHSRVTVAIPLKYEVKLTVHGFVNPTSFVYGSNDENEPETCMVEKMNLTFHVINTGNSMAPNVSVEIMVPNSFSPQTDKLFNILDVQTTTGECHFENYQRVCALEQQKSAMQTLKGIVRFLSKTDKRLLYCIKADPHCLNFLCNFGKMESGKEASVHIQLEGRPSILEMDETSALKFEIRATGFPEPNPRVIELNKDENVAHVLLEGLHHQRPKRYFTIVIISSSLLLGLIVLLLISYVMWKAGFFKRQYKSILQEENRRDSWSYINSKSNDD
T1 sequence (P26010 20-798): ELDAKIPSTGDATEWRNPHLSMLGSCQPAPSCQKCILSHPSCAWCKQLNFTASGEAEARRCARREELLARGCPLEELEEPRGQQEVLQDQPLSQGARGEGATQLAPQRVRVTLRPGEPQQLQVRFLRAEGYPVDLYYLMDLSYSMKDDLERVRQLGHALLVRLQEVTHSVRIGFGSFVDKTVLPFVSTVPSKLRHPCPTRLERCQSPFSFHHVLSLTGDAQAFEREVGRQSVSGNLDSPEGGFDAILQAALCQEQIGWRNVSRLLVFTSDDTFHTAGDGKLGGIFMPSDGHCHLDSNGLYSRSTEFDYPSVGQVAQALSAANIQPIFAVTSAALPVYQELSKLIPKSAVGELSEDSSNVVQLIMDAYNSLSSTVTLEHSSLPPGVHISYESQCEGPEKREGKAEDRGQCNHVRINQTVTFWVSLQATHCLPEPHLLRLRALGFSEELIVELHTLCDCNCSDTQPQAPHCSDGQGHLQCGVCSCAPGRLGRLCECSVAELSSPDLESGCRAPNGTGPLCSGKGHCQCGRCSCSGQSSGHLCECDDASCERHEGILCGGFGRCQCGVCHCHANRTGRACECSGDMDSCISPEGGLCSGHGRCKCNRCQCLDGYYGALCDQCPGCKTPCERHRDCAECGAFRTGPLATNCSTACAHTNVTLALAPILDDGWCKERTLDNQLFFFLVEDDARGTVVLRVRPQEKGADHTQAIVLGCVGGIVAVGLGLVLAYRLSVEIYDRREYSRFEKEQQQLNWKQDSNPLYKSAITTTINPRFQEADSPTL
Format: cell-based
Experimental: Three in vitro assays were used to examine the α4β7 mechanistic process used by cells: 1) ligand:receptor affinity, 2) the avidity of those interactions on a cell's surface, and 3) how those interactions fare under an imposing force. In Example 5, a Fluorescence Polarization (FP) assay is used to measure compound activity through binding competition with the fluorescein-labeled peptide. In Example 6, the potency of compounds against α4β7 is measured in the cell-based ligand binding assay (LBA), using RPMI 8866 cells incubated with the compound samples in competition with soluble MAdCAM-1 ligand. In Example 7, activity of compounds is evaluated in a cell adhesion assay that mechanistically tests what occurs in vivo when trafficking cells utilize α4β7 to adhere to MAdCAM-1 expressing HEVs of the gut during the extravasation process. In the cell adhesion assay of Example 7, a MAdCAMI1-(Fc) is coated on plastic, and α4β7 expressing cells (RPMI-8866) are allowed to adhere to the coated surface in the presence of the test compounds. Next, the force of washing with buffer is applied to cells thereby testing the strength of that adhesion. Unattached cells are removed and the remaining adherent cells are quantified.
Example 7 describes a cell adhesion assay.
To each well of a 96 well plate, 100 ug of recombinant human MAdCAM in 100 ul PBS is added and incubated overnight at 4° C. After incubation MAdCAM is removed by aspiration and 200 ul of PBS+1% BSA is added to block the plate for 2 hours at 37° C. and 5% CO2. During this incubation dilution curves of compound are made in 100% DMSO in 96 well V bottom plates. 1.75 ul of diluted compounds are then transferred to a new 96 well U bottom plate containing 20 ul of assay media (phosphate free DMEM+25 mM HEPES+1% BSA). To this an additional 155 ul of assay media is added with mixing by pipetting up and down. This mixture is allowed to incubate for 15 minutes at 37° C. and 5% CO2. After incubation 175 ul of assay media containing 2e6/mL RPMI8866 cells is added to compound containing wells without mixing and plate is allowed to incubate for another 15 minutes at 37° C. and 5% CO2. During this incubation MAdCAM coated plates are removed from incubator and washed twice with 200 ul PBS+0.1% BSA. […] This plate is then incubated at 37° C. and 5% CO2 for 1 hour. After incubation plates are washed twice with 200 ul and once with 50 ul of phenol free RPMI+1% BSA. A final 50 ul of phenol free RPMI+1% BSA is added to wells after last wash. Next 50 ul of Promega cell titer glow is added to the wells. Plate is incubated on shaker for 2 minutes at 200 RPM followed by another 8 minutes off shaker before having the luminescence read on a Biotek Citation 5 plate reader. Raw data is converted to % inhibition compared to bottom of curve and analyzed using a 4-parameter non linear curve in Prism to determine IC50 and IC90.

IC50, > 500 nM:
Cc1ccccc1-c1cc([C@H](CC(=O)O)NC(=O)[C@H](CC(C)C)n2ccccc2=O)ccc1C
CC(C)C[C@@H](C(=O)N[C@@H](CC(=O)O)c1ccc(-c2ccc(F)cc2)cc1)n1cc(CCN2CC(F)C2)cc(F)c1=O
CC(C)C[C@@H](C(=O)N[C@@H](CC(=O)O)c1ccc(-c2ccc(F)cc2)cc1)n1cc(CCN(C)C)c(C(F)(F)F)cc1=O
COC[C@@H](C(=O)N[C@@H](CC(=O)O)c1cccc(-c2c(C)cccc2C)c1)n1ccc(C)cc1=O
